Series [1] has as its system celiac subjects, with sideropenic anemia. The experiment in a line: Efficiency comparison between oral iron bis-glycinate chelate (effervescent tablet of example 1) and conventional treatment in celiac patients; haemochromocytometric test. The series is classed as in vivo, human. To be noted: for Hb values / Serum iron values / Values of Ferritin: one patient per line; for Serum iron values / Values of Ferritin: after initial therapy (Fe sulphate p.o. and/or sodium ferric gluconate i.v.). The text has this: 12 celiac subjects, with sideropenic anemia diagnosed according to the hemoglobin (Hb), ferritin and iron (serum iron) values obtained from the haemochromocytometric test were included in this experiment.
Celiac disease was diagnosed according to the clinical manifestations and histology reports regarding the intestinal mucosa.
These patients were then subjected to a therapy using the iron bis-glycinate chelate according to the invention, formulated in the effervescent tablet of example 1.
The hemoglobin (Hb), (Table 1), ferritin (Table 2) and serum iron (Table 3) values taken from each treated patient, both after the conventional therapy (oral and/or intravenous) and after the oral administration according to the present invention (effervescent tablet) were considered for the evaluation.
A therapy cycle corresponds to the treatment for 20 days with two effervescent tablets per day containing about 14 mg of iron ion per tablet and then, an effervescent tablet per day containing 14 mg of iron ion, for further 40 days.
The subsequent maintenance corresponds to the treatment for 20 days with two effervescent tablets per day containing about 14 mg of iron ion per tablet, every 3 months for about one year.
The hemoglobin, ferritin and serum iron blood values were determined after the first treatment cycle and the treatment was continued with repeated cycles according to the previously indicated methods.

The conditions of series [2]: with respect to mineral salts, such as ferrous sulphate; literature data; cited from earlier work.
The conditions of series [3]: cited from earlier work.
Series [4] deals with celiac patients. The series can be described thus: Clinical records of celiac patients treated with conventional iron salts p.o. and i.v. (Examples 6-11).
Protocol: (§1) All patients were initially treated with ferrous sulphate orally (1 tablet of ferrous sulphate, corresponding to 105 mg of iron ion) for 40 days and/or with sodium ferric gluconate by intravenous administration for a variable period of time according to the seriousness of the anemic status.
(§2) All patients were diagnosed with celiac disease through bioptic sampling and with serological tests. During the conventional therapy, the diet of said patients was controlled and corrected with gluten-free foods.
The test system of series [5] is celiac patients. To be noted: human, in vivo.
Protocol: as §1, §2
Where [6] appears, read: Patient I, ferrous sulphate oral, Final values, 40 days.
The mark [7] stands for this setting: Patient I, ferrous sulphate oral, Initial values, 40 days.
Setting [8] is: Patient II, ferrous sulphate oral, Final values, 8/10 days.
[9] abbreviates: Patient II, ferrous sulphate oral, Initial values, 8/10 days.
Where [10] appears, read: Patient III, ferrous sulphate oral, Final values, 40 days.
The mark [11] stands for this setting: Patient III, ferrous sulphate oral, Initial values, 40 days.
The mark [12] stands for this setting: Patient V, ferrous sulphate oral, Final values, 40 days.
Setting [13] is: Patient V, ferrous sulphate oral, Initial values, 40 days.
[14] abbreviates: Patient I, iron polymaltosate oral, Final values, 20 days.
[15] abbreviates: Patient I, iron polymaltosate oral, Initial values, 20 days.
Setting [16] is: Patient I, ferric iron i.v., Final values, 20 days.
Setting [17] is: Patient I, ferric iron i.v., Initial values, 20 days.
The mark [18] stands for this setting: Patient II, ferric iron i.v., Final values, few days.
The mark [19] stands for this setting: Patient II, ferric iron i.v., Initial values, few days.
Setting [20] is: Patient IV, ferric iron i.v., Final values, 20 days.
Where [21] appears, read: Patient IV, ferric iron i.v., Initial values, 20 days.
Where [22] appears, read: Patient VI, iron i.v., Final values, 20 days.
The mark [23] stands for this setting: Patient VI, iron i.v., Initial values, 20 days.

Several values for one entry are separate records, joined by “and”; a condition that tells them apart may be missing. Equal values may be shown once. Read-outs that look alike come from different tables or passages of the source.

For the compound `NCC(=O)[O-].NCC(=O)[O-].[Fe+2]` [Iron bis-glycinate chelate, iron bis-glycinate chelate], the “hemoglobin, ferritin and serum iron value” in series [1] (after I therapy cycle, celiac patients) is given as “considerably increases”. The Hb values in series [1] (after efferv. tab therapy 1st cycle: two effervescent tablets per day for 20 days, then one per day for 40 days) is 12.5 g/100 ml and 12.0 g/100 ml (2×) and 13.1 g/100 ml and 11.7 g/100 ml and 11.8 g/100 ml and 12.8 g/100 ml and 12.3 g/100 ml and 12.7 g/100 ml and 11.9 g/100 ml and 12.1 g/100 ml and 10.0 g/100 ml; in series [1] (after maintenance efferv. tab.: two tablets per day for 20 days every 3 months for about one year), 13.6 g/100 ml and 12.9 g/100 ml (2×) and 14.3 g/100 ml and 13.4 g/100 ml (2×) and 13.2 g/100 ml and 12.3 g/100 ml and 14.0 g/100 ml and 13.1 g/100 ml and 12.7 g/100 ml and 12.1 g/100 ml. Also, the adverse effects entry in series [1] (oral treatment of 12 celiac patients with the effervescent tablet of example 1) is “did not reveal any adverse effects worth mentioning”. Also, the bioavailability result in series [2] is on record as “greater bioavailability”. In series [3] (different pH values of the gastrointestinal section), the hydrolysis result was “does not undergo hydrolysis”. For the same compound, the “separation into iron ion” value in series [3] (pH interval comprised between 3 and 10) is given as “not separated into iron ion”.

For the compound `O=S(=O)([O-])[O-].[Fe+2]` [ferrous sulphate], the “tolerability / adverse events of the treatment” value (“tolerability / adverse events” for short) with celiac patients [4] (Patient I - Female) was “intestinal intolerance”. Further, the Ferritin with celiac patients [4] (setting [6]) was determined as 38; with celiac patients [4] (setting [7]), 32; in the series on celiac patients [4] (setting [8]), 45; with celiac patients [4] (setting [9]), 41; with celiac patients [4] (setting [10]) it was 27; with celiac patients [4] (setting [11]), 19. The Ferritin in the series with celiac patients [4] (setting [12]) was 21; in the series with celiac patients [4] (setting [13]) it was <5. In addition, the Serum iron in the series with celiac patients [4] (setting [6]) is reported as 48; in the series on celiac patients [4] (setting [7]), 41; in the series with celiac patients [4] (setting [8]), 68; with celiac patients [4] (setting [9]), 55; in the series with celiac patients [4] (setting [10]), 38; in the series on celiac patients [4] (setting [11]), 32. For the same compound, the values for the Serum iron with celiac patients [4] (setting [12]) and in the series with celiac patients [4] (setting [13]) were 46 and 22, respectively. For the same compound, the Hb worked out at 11.1 with celiac patients [4] (Patient I, ferrous sulphate oral, Final values, duration 40 days); 10.2 in the series with celiac patients [4] (Patient I, ferrous sulphate oral, Initial values, duration 40 days); 12.3 with celiac patients [4] (setting [8]); 11.6 in the series with celiac patients [4] (setting [9]); 10 in the series with celiac patients [4] (setting [10]); 9.1 in the series on celiac patients [4] (setting [11]). Further, the Hb with celiac patients [4] (Patient V, ferrous sulphate oral, after several therapy cycles, Initial values, 40 days) turned out to be 8.4; in the series with celiac patients [4] (setting [12]), 9.7. The Serum iron values in series [1] is 34 µg/dL and 16 µg/dL. Further, in series [1], the “Values of Ferritin” value was 23 ng/mL and <5 ng/mL.

As for iron polymaltosate, in the series with celiac patients [4] (setting [14]), the Ferritin is given as 25, the Hb is reported as 10.8 and the Serum iron was 43. In the series on celiac patients [4] (setting [15]), the Ferritin worked out at 29, the Hb was found to be 10.6 and the Serum iron is 38. Further, the “tolerability / adverse events” value in the series with celiac patients [5] is on record as “well tolerated”.

For the compound sodium ferric gluconate, the Ferritin in the series on celiac patients [4] (setting [16]) was 30; in the series on celiac patients [4] (setting [17]), <5; in the series on celiac patients [4] (setting [18]), 33; in the series on celiac patients [4] (setting [19]), 31; in the series with celiac patients [4] (setting [20]), 42; in the series with celiac patients [4] (setting [21]), 21. Besides, the results for the Ferritin with celiac patients [4] (setting [22]) and with celiac patients [4] (setting [23]) were 81 and 35, respectively. The Hb is listed as 9.8 in the series with celiac patients [4] (setting [16]); 7.7 in the series with celiac patients [4] (Patient I, ferric iron i.v., Initial values, 20 days, 1 vial/day for 10 days, then 2 vials/day); 10.8 in the series with celiac patients [4] (Patient II, ferric iron i.v., Final values, few days, cycle not completed); 10.4 with celiac patients [4] (Patient II, ferric iron i.v., Initial values, few days, cycle not completed); 10.6 in the series with celiac patients [4] (setting [20]); 9.7 in the series with celiac patients [4] (Patient IV, ferric iron i.v., Initial values, 20 days, 1 vial/day for 10 days, then 2 vials/day). For the same compound, the Hb in the series on celiac patients [4] (setting [22]) worked out at 12.6; in the series with celiac patients [4] (setting [23]), 10.2. The Serum iron with celiac patients [4] (setting [16]) was 48; in the series with celiac patients [4] (setting [17]), 19; with celiac patients [4] (setting [18]), 49; in the series with celiac patients [4] (setting [19]), 40; in the series with celiac patients [4] (setting [20]), 54; in the series with celiac patients [4] (setting [21]), 39. Also, the Serum iron in the series with celiac patients [4] (setting [22]) amounted to 68; in the series on celiac patients [4] (setting [23]) it was 41. Moreover, the “values of Hb” value with celiac patients [4] (Patient IV, iron i.v., cycles every 3/4 months) was “around 11 gr/dl”. For the same compound, the “tolerability / adverse events” value in the series with celiac patients [5] (iv) is “skin rush and asthmatic crisis”. In series [1], this compound had a Serum iron values of 30 µg/dL. Further, the “Values of Ferritin” value in series [1] amounted to 22 ng/mL.

Values taken from patent EP2799074A1, “Iron bis-glycinate chelate for use in the oral treatment of anemia in patients with celiac disease” (Laboratori Baldacci S.P.A., priority 2009, dated 2011).
